Data on three compounds can be found in publication PMC5615155 (Toxicology Reports, 2017).

The subject of series [1] is E. coli strain WP2 uvrA. Conditions: up to 5000 μg/plate, with and without metabolic activation; cited from earlier work.
The test system of series [2] is HPBLs. The note with it: cited from earlier work.
For series [3] the following is noted: male mice, 2000 mg/kg bw; cited from earlier work.
The test system of series [4] is S. typhimurium strains TA98, TA100, TA1535, TA1537. The note with it: up to 5000 μg/plate, with and without metabolic activation; cited from earlier work.
The conditions of series [5]: cited from earlier work.
The conditions of series [6]: Day 1 of 90-day study, cited from earlier work.
Series [7] can be described thus: in vitro microsomal metabolism. The format is in vitro ADME, human. The note with it: 10 μM, 0.5 mg/mL, +NADPH, 120 min.
Series [8] is described as follows: in vitro microsomal metabolism. The format is in vitro ADME, Sprague-Dawley rat. The note with it: 10 μM, 0.5 mg/mL, +NADPH, 120 min.
Series [9] concerns CHO-WBL cells. The note with it: ± metabolic activation, up to 2500 μg/mL; cited from earlier work.

The structures appear in SMILES notation. Read-outs that look alike come from different tables or passages of the source.

For the compound `CCCNC(=O)C(C)(C)COc1cccc2c1C(N)=NS(=O)(=O)N2` [S6973, 3-((4-amino-2,2-dioxido-1H-benzo[c][1,2,6]thiadiazin-5-yl)oxy)-2,2-dimethyl-N-propylpropanamide], the “bacterial reverse mutation result” value in series [1] and in [4] was “non-mutagenic” throughout. Also, the chromosome aberration result in series [2] is recorded as “non-clastogenic”. Moreover, the “in vivo micronucleus result” value in [3] is given as “neither clastogenic nor aneugenic”. Besides, the AUClast in series [5] (iv 2.5 mg/kg, M) is 1760 ng·h/mL; in series [5] (oral gavage 5.0 mg/kg, M), 337 ng·h/mL; in series [5] (oral gavage 10 mg/kg, M), 453 ng·h/mL; in [5] (oral gavage 20 mg/kg, M), 553 ng·h/mL. For the same compound, the peak concentration (Cmax) (as a rule, the peak of the concentration-time curve) is given as 3997 ng/mL in series [5] (iv 2.5 mg/kg, M); 74.8 ng/mL in series [5] (oral gavage 5.0 mg/kg, M); 103 ng/mL in series [5] (oral gavage 10 mg/kg, M); 111 ng/mL in series [5] (oral gavage 20 mg/kg, M). Besides, the Tmax (usually the time from dosing to the highest level) in [5] (iv 2.5 mg/kg, M) is reported as 0.083 h; in series [5] (oral gavage 5.0 mg/kg, M), 1.33 h; in [5] (oral gavage 10 mg/kg, M) it was 1.00 h; in [5] (oral gavage 20 mg/kg, M) it was 1.33 h. Further, the t1/2 in series [5] (iv 2.5 mg/kg, M) was 0.78 h; in series [5] (oral gavage 5.0 mg/kg, M), 3.67 h; in [5] (oral gavage 10 mg/kg, M) it was 2.98 h; in series [5] (oral gavage 20 mg/kg, M), 4.53 h. Further, the “%F” value is 9.56% in series [5] (oral gavage 5.0 mg/kg, M); 6.43% in [5] (oral gavage 10 mg/kg, M); 3.93% in series [5] (oral gavage 20 mg/kg, M). Also, the “bioavailability, food ad-mix” value in series [6] (5.0 mg/kg bw) was 8.04%; in [6] (20 mg/kg bw), 7.73%.
As for `O=C1CC2(CCCC2)CC(=O)N1CCCCN1CCN(c2ncccn2)CC1` [Buspirone, reference compound], the “% MS (EIC) peak area of parent relative to time 0” value is recorded as 2% in [7] and 21% in [8].
As to `CC(C)CC(=O)N1CCC[C@H](COc2cccc3c2C(N)=NS(=O)(=O)N3)C1` [S617, (S)-1-(3-(((4-amino-2,2-dioxido-1H-benzo[c][1,2,6]thiadiazin-5-yl)oxy)methyl)piperidin-1-yl)-3-methylbutan-1-one], the “bacterial reverse mutation result” value in series [1] and in series [4] was “non-mutagenic” each time. In [2], the chromosome aberration result is “non-clastogenic”. In addition, the “in vitro micronucleus result” value in series [9] is “neither clastogenic nor aneugenic”. Moreover, the AUClast was 212 ng·h/mL in series [5] (iv 1.0 mg/kg, F); 263 ng·h/mL in series [5] (iv 1.0 mg/kg, M); 36.7 ng·h/mL in series [5] (oral gavage 10 mg/kg, F); 17.5 ng·h/mL in series [5] (oral gavage 10 mg/kg, M); 56.3 ng·h/mL in series [5] (oral gavage 30 mg/kg, F); 42.5 ng·h/mL in series [5] (oral gavage 30 mg/kg, M). Besides, the AUClast was 92.6 ng·h/mL in series [5] (oral gavage 100 mg/kg, F) and 53.2 ng·h/mL in series [5] (oral gavage 100 mg/kg, M). Besides, the Cmax is reported as 1308 ng/mL in series [5] (iv 1.0 mg/kg, F); 1663 ng/mL in series [5] (iv 1.0 mg/kg, M); 4.80 ng/mL in [5] (oral gavage 10 mg/kg, F); 3.30 ng/mL in [5] (oral gavage 10 mg/kg, M); 9.40 ng/mL in series [5] (oral gavage 30 mg/kg, F); 7.10 ng/mL in series [5] (oral gavage 30 mg/kg, M). The maximum concentration (Cmax) is on record as 18.3 ng/mL in series [5] (oral gavage 100 mg/kg, F) and 10.1 ng/mL in series [5] (oral gavage 100 mg/kg, M). Moreover, the Tmax is 0.03 h in series [5] (iv 1.0 mg/kg, F); 0.03 h in series [5] (iv 1.0 mg/kg, M); 0.88 h in series [5] (oral gavage 10 mg/kg, F); 0.44 h in series [5] (oral gavage 10 mg/kg, M); 1.38 h in series [5] (oral gavage 30 mg/kg, F); 1.25 h in series [5] (oral gavage 30 mg/kg, M). Further, the Tmax is 0.50 h in series [5] (oral gavage 100 mg/kg, F) and 1.38 h in [5] (oral gavage 100 mg/kg, M). For the same compound, the “%F” value in series [5] (oral gavage 10 mg/kg, F) is 1.73%; in series [5] (oral gavage 10 mg/kg, M), 0.67%; in series [5] (oral gavage 30 mg/kg, F), 0.89%; in series [5] (oral gavage 30 mg/kg, M), 0.54%; in [5] (oral gavage 100 mg/kg, F), 0.44%; in series [5] (oral gavage 100 mg/kg, M), 0.20%. Also, the t1/2 in series [5] (oral gavage 10 mg/kg, F) was 4.25 h; in [5] (oral gavage 10 mg/kg, M), 3.85 h; in [5] (oral gavage 30 mg/kg, F) it was 3.57 h; in [5] (oral gavage 30 mg/kg, M), 3.03 h; in series [5] (oral gavage 100 mg/kg, F), 1.45 h; in [5] (oral gavage 100 mg/kg, M), 3.48 h.
